One molecule from US10322088B2, “Sustained-release composition, method for fabricating, and use thereof” (NATIONAL TSING HUA UNIVERSITY, priority 2017, dated 2019) can be followed below.

The structures appear in SMILES notation.

In assay [1] the test system is human umbilical vein endothelial cells. Put plainly: Tubular structure formation test on Matrigel. The format is cell-based. The note with it: 25 mM D-glucose. An excerpt:
The human umbilical vein endothelial cells will migrate, arrange and form a tubular network structure without additional growth factors and the participation of other kinds of cells, thus the wound-healing efficiency is affected by the maintenance of the tubular structure of the cells as time goes on. Therefore, the ability to enhance cell migration and facilitate the angiogenesis of the sustained-release composition of the present disclosure is confirmed by the tubular structure formation test of the human umbilical vein endothelial cells. The specific experimental method is described below. First, 200 μL of the growth factor-reduced matrix Matrigel is added to each well of a 24-well plate respectively and then placed into the 37° C. incubator. After the growth factor-reduced matrix Matrigel is heated and become colloid, 2.5×10^4 of the human umbilical vein endothelial cells are seeded in each well of the aforementioned 24-well plate and then 200 μL of the medium (containing 25 mM D-glucose) is added to the wells respectively. […] Next, the tubular structure of each experimental group is observed via an inverted microscope at the time points of 6 hours, 12 hours, 24 hours and 48 hours, and the branching point number of each experimental group is calculated.

The test system of another assay is ERK1/2 protein. As to the kind of experiment: Signaling molecule activation test, ERK1/2 phosphorylation by ELISA. To be noted: HUVEC. It counts as cell-based, human. The procedure: (§1) In the aforementioned description, the exogenous hydrogen sulfide can activate the signaling molecules related to the proliferation and the migration of the endothelial cells, such as ERK1/2 protein and p38 protein, so that the angiogenesis of the cells is enhanced. Thus, the ability to activate the signaling molecule of the sustained-release composition of the present disclosure is further estimated in this experiment. First, the human umbilical vein endothelial cells are seeded in a 6-well plate in a density of 10^5 cells per well. After incubating for 24 hours, the 1% FBS mediums containing the formula of the experimental group 1 or the experimental group 3 (all of them contain 25 mM D-glucose) respectively is added to each well of a 6-wells-plate. Finally, the cells are collected at specific time points and the phosphorylation level of p38 protein and ERK1/2 are quantified by the enzyme-linked immunosorbent assay (ELISA).

In a further assay the test system is p38 protein. Put plainly: Signaling molecule activation test, p38 phosphorylation by ELISA. It counts as cell-based, human. To be noted: HUVEC. The procedure:
as §1

The subject of the next assay is db/db mouse. Put plainly: In vivo wound healing test, full-thickness back skin wounds. The note with it: after treating for 18 days, dressing replaced every 48 hours. From the text:
According to the aforementioned results, the sustained-release composition of the present disclosure does have the ability to enhance the cell migration, the cell proliferation and the angiogenesis, and the ability to facilitate the wound healing of the sustained-release composition of the present disclosure is further confirmed by the following in vivo wound healing test. The animal model established method and the animal experiment procedures of the in vivo wound healing test in this experiment are complied with the “Laboratory Animal Care and Use Guide” published by the Council of Agriculture, Taiwan. The diabetic animal model used in this experiment is an 8-week-old BKS.Cg-Lepr^db/Lepr^db/JNarl mouse (also known as db/db mouse).
In the in vivo wound healing test, four symmetrically distributed rounded full-thickness wounds are created on the back skin of each mouse by the tissue sampler after the mice are anesthetized, wherein the diameter of each wound is 0.5 centimeter and the volume of each wound is 50 μL. The four wounds are applied with different treatments respectively and the dressing is replaced every 48 hours. […] The area changes of each wound at different time points are further analyzed by the image analysis software.

As for `S` [experimental group 1, sodium hydrosulfide], the tubular structure result in assay [1] (after incubating for 6 hours) is given as “can be observed”. For the same molecule, the “tubular structure disappeared rate” value in assay [1] (up to 48 hours) is recorded as “reduced”. Besides, the “phosphorylation level of the ERK1/2 protein” value is recorded as “decreased” with ERK1/2 protein (after 24 hours and 48 hours); “significantly increased” in the assay on ERK1/2 protein (first hour). Moreover, the “phosphorylation level of the p38 protein” value is reported as “decreased” in the assay with p38 protein (after 24 hours and 48 hours); “significantly increased” in the assay on p38 protein (first hour). For the same molecule, the “appearance of the wound” value with db/db mouse is on record as “unobvious”.
